# How the values were obtained:
# [1] = human, 40000 µM
# Description: Solubility ratio ([HbS+drug (40 mM)]/[HbS-drug])
# [2] = human, 10000 µM
# [3] = human, 5000 µM
# Description: Solubility ratio ([HbS+drug (5 mM)]/[HbS-drug])
# [4] = human, 20000 µM
# Description: Solubility ratio ([HbS+drug (20 mM)]/[HbS-drug]
Solubility ratio [1],Solubility ratio [2],Solubility ratio [3],Solubility ratio [4],SMILES
1.248,1.077,1.018,1.145,O=C(O)COc1c(Br)cc(Br)cc1Br
1.189,1.035,1.031,1.102,Cc1ccc(OCC(=O)O)c(Br)c1
1.351,1.086,1.035,1.18,Cc1cc(C)c(C)c(OCC(=O)O)c1
1.379,1.086,1.048,1.193,CC(C)(OCc1ccc(Br)cc1)C(=O)O
1.322,1.134,1.054,1.247,O=C(O)COc1ccc2c(c1)CCC2
1.216,1.054,1.033,1.124,Cc1cc(OCC(=O)O)cc(C)c1Cl
1.243,1.06,1.027,1.118,Cc1ccc(OCC(=O)O)cc1C
1.246,1.13,1.079,1.295,O=C(O)COCc1ccc(Cl)cc1Cl
1.263,1.058,1.007,1.101,O=C(O)C(CCc1ccccc1)C(=O)O
1.25,1.032,1.002,1.103,O=C(O)COC(c1ccccc1)c1ccc(Cl)cc1 (centres undefined)
1.057,1.044,1.022,1.011,CN(C)c1ccc(OCC(=O)O)cc1.Cl
1.198,0.932,0.954,0.981,CC(C)(Oc1ccc(CCNC(=O)c2ccc(Cl)cc2)cc1)C(=O)O [BEZAFIBRATE]
1.302,1.064,1.018,1.155,CC(C)(Oc1ccc(Cl)cc1)C(=O)O [CLOFIBRIC ACID]
1.234,1.073,1.04,1.117,Cc1ccc(C)c(OCCCC(C)(C)C(=O)O)c1 [GEMFIBROZIL]
1.178,1.048,1.036,1.093,N[C@@H](Cc1ccccc1)C(=O)O [PHENYLALANINE]

SMILES,Solubility ratio [1],Solubility ratio [2],Solubility ratio [3],Solubility ratio [4]
"O=C(O)COc1ccc(Cl)cc1Cl [2,4-DICHLOROPHENOXYACETIC ACID]",1.313,1.083,1.049,1.151
